Test results published in patent US20200109429A1, “Methods and Systems for Cell-Free Biodiscovery of Natural Products” (Synvitrobio, Inc., priority 2017, published 2020).
In brackets after ≈: the same amount, converted by molar mass. Read-outs that look alike come from different tables or passages of the source. Where a SMILES comes first, the peptide text is derived from it. Bridges are numbered along the chain shown (N, C = ends).

Columns and labels:
[1] = 121 C for 10 min heat step; cited from earlier work
E. coli [2] = format: cell-based; settings: purified microcin J25 added to cellular reactions, E. coli cell death
Method: (A) Cell-free assay of mccj25 activity. […] (B) Inhibition of E. coli in vivo growth by purified microcin J25. Data, final concentrations.
It is seen in FIG. 7B that adding purified microcin J25 to cellular reactions causes cell death with a MIC of 0.1 uM. If microcin J25 produced in cell-free systems is at high enough concentration, those skilled in the art will recognize that the MIC curve for killing live E. coli will be the similar. However, avoiding phage in the reaction is essential to ensure that the MIC is accurate and not caused by propogation of infecting phage carried over in a typical cell-free reaction that is contaminated with phage.

E. coli RNA polymerase [3] = biological target: T1, E. coli RNA polymerase (Escherichia coli, UniProt P0A8T7+P0A8V2); format: biochemical; design: endogenous in cells; host or cells: E. coli cell-free lysate (extract eZS6 or eAC15, prepared per Sun et al. 2013); settings: lasso cluster co-expressed with sigma70 GFP reporter in E. coli cell-free system
Method: All reactions contain 40019 in plasmid form at 2.66 nM, and the reaction is done in E. coli extract “eZS6” at 25% lysate, 75% buffer concentration, prepared as listed in (Sun et al., 2013) or “eAC15” at 30% lysate, 70% buffer concentration. GFP concentration was kept at 2 nM, and the other components kept at a total of 6 nM to control for competition affects.
These are run in a E. coli-based cell-free lysate system in different concentrations, as listed by nM concentrations described in the chart, with all reactions containing 4 nM sigma70-UTR1-GFP and 3.5 μM gamS to protect linear templates.
Our expression system incorporates these coding sequences individually with a sigma70 promoter, UTR and terminator. […] A GFP construct (40019 in linear) was assembled in the same way. Linear DNAs were generated either by PCR amplification from plasmid or the DNA assemblies themselves. We used 3.5 μM GamS to prevent template degradation in E. coli lysate. Reactions were run at 10 μl scale in a 384-well format. The reaction is done in E. coli extract “eZS6” at 25% lysate, 75% buffer concentration, prepared as listed in (Sun et al., 2013). Timecourses of GFP intensity were taken, and 12 hr endpoints were used to generate the heatmap. GFP intensity of lasso-cluster-containing reaction was normalized to their paired negative controls.
We expressed our GFP construct in the same reactions as our lasso constructs. GFP (4009 in linear) was expressed at 4 nM and the lasso cluster genes at 0.6 nM.

E. coli [4] = settings: cited from earlier work
Salmonella = settings: mouse models; cited from earlier work
E. coli RNA polymerase [5] = biological target: T1, E. coli RNA polymerase; settings: has been shown previously; cited from earlier work
[6] = format: in vitro ADME, E. coli
Method: Linear constructs were expressed in 10 μl cell free reactions with 2% flurotect (a tRNA carrying a BODIPY labelled lysine) and 8 nM DNA constructs for MBP-A or MBP (1065, 1066). 2 μl of these reactions were prepared in 20 μl sample buffer (50 mM bis-Tris, 2% SDS, 10% glycerol) and run on a 4-12% bis-tris PAGE gel (ThermoFisher Scientific) at 200V for 20 min.
To stabilize mcjA, the peptide can be tagged either on the N terminus or the C terminus as a fusion protein that provides a stable domain that prevents proteolysis of mcjA. A linker and/or targeting region can be added to remove the tag. In an example, we tag mcjA with a maltose binding protein (MBP), generating a construct 1065 (SEQ ID NO.: 19) and compare the expression of 1065 to a wildtype MBP, 1066 (SEQ ID NO.: 20). In a SDS-PAGE gel expressing both constructs in FIG. 18, the expressed fusion protein was stable and easily visualized on a gel.

T1 sequence (P0A7Z4 whole entry): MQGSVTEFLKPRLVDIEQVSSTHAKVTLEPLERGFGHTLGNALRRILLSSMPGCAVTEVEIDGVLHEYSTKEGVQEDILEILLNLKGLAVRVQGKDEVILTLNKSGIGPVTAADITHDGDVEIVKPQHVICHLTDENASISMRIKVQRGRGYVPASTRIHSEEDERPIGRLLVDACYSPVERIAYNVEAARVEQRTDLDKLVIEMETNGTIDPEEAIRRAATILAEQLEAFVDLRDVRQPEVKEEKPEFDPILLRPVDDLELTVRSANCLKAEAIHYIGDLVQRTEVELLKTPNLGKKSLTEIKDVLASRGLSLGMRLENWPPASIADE
T1 sequence (P0A8V2 whole entry): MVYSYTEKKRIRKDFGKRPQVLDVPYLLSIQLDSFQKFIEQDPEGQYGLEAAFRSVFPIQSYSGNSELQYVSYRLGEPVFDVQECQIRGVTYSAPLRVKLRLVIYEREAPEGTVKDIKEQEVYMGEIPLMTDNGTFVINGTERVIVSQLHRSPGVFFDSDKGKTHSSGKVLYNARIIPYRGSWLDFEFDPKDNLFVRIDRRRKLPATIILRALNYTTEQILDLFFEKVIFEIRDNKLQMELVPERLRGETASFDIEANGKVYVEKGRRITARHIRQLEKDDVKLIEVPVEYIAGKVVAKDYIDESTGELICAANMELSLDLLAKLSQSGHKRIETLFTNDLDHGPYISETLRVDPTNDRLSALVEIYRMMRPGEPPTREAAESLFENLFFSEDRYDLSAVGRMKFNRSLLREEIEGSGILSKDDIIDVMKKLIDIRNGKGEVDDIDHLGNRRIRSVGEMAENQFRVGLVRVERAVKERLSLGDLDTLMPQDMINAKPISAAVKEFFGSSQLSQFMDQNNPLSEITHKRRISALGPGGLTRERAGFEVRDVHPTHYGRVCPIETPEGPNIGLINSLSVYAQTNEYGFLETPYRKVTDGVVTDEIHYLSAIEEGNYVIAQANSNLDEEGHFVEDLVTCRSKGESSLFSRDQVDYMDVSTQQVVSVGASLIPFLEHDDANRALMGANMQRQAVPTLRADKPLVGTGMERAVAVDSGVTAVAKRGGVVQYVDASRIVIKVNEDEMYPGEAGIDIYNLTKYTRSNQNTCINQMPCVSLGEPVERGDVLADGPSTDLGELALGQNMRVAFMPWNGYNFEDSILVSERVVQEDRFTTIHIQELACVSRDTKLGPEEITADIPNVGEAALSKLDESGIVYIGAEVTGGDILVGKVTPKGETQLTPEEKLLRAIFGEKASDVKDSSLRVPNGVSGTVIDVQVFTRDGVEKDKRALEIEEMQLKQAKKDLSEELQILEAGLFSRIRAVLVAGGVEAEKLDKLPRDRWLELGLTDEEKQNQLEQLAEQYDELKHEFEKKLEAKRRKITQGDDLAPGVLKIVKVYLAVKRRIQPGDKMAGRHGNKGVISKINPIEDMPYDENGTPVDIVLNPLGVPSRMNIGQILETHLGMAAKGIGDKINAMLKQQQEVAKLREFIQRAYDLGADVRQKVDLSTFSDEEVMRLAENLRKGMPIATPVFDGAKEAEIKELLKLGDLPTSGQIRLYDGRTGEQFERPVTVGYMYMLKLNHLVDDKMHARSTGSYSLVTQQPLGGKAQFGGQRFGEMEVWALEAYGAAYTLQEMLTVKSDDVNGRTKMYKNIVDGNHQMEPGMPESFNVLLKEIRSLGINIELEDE
T1 sequence (P00579 whole entry, further chain): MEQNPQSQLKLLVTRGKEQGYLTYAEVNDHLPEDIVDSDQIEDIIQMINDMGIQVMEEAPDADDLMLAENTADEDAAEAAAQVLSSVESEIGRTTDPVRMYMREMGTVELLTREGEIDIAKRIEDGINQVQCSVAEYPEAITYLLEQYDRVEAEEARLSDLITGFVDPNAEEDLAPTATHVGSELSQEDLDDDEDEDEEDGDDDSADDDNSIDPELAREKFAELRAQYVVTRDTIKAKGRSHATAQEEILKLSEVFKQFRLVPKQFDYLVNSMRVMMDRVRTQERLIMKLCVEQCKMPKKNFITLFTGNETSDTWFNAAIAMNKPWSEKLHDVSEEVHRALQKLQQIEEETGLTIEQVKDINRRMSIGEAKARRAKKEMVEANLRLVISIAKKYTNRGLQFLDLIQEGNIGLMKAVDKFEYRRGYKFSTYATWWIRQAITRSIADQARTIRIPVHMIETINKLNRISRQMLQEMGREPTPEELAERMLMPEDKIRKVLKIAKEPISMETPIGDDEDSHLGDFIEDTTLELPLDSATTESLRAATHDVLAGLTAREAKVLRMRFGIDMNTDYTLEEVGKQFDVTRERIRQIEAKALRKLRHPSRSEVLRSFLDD
T1 sequence (P0A8T7 whole entry): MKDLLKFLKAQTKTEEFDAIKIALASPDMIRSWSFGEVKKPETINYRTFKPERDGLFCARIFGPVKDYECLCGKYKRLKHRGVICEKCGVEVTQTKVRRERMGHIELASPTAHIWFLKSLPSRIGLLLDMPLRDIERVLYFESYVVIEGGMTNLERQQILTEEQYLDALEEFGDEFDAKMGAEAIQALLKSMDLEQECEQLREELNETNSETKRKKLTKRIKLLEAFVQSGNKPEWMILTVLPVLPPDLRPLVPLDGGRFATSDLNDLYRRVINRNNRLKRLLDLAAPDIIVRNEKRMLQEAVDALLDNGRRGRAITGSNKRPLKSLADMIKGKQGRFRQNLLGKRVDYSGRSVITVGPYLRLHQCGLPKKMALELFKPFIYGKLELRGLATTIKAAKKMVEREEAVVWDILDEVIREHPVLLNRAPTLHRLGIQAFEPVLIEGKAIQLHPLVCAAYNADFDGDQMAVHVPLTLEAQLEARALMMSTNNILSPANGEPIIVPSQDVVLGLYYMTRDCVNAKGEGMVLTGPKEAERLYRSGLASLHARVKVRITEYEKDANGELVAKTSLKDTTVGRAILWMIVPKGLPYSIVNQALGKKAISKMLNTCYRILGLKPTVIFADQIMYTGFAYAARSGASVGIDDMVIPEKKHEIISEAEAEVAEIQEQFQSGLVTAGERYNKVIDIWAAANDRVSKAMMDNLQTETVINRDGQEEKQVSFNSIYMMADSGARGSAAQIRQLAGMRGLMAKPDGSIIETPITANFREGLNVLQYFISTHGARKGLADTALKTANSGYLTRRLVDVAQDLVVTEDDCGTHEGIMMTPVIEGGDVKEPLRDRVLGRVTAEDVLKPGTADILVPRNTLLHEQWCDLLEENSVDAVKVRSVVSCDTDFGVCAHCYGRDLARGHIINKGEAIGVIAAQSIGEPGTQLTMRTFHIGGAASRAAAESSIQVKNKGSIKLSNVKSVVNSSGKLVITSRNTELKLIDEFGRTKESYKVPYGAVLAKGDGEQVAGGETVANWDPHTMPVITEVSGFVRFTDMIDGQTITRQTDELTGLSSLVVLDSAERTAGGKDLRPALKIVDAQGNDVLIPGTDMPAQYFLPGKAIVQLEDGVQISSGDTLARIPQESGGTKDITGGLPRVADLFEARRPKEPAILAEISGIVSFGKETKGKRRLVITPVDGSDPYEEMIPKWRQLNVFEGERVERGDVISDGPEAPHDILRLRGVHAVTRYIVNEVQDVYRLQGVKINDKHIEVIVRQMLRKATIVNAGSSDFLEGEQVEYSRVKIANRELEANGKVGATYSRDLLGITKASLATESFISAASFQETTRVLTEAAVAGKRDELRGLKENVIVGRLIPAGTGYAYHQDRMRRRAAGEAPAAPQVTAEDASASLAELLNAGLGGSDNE
T1 sequence (P0A800 whole entry, further chain): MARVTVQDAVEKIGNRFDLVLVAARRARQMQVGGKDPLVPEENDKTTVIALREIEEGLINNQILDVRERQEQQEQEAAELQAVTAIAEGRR

## CC[C@H](C)[C@H](NC(=O)CNC(=O)[C@@H](NC(=O)[C@H](Cc1ccccc1)NC(=O)[C@H](Cc1ccc(O)cc1)NC(=O)[C@@H]1CCC(=O)NCC(=O)NCC(=O)N[C@@H](C)C(=O)NCC(=O)N[C@@H](Cc2cnc[nH]2)C(=O)N[C@@H](C(C)C)C(=O)N2CCC[C@H]2C(=O)N1)C(C)C)C(=O)NCC(=O)N[C@H](C(=O)N1CCC[C@H]1C(=O)N[C@H](C(=O)N[C@@H](CO)C(=O)N[C@@H](Cc1ccccc1)C(=O)N[C@@H](Cc1ccc(O)cc1)C(=O)NCC(=O)O)[C@@H](C)CC)[C@@H](C)O [microcin J25] (GGAGHVPEYFVGIGTPISFYG-OH; lactam N-8)
[1]
  heat stability: heat-stable

## CC[C@H](C)[C@H](NC(=O)CNC(=O)[C@@H](NC(=O)[C@H](Cc1ccccc1)NC(=O)[C@H](Cc1ccc(O)cc1)NC(=O)[C@@H]1CCC(=O)NCC(=O)NCC(=O)N[C@@H](C)C(=O)NCC(=O)N[C@@H](Cc2c[nH]cn2)C(=O)N[C@@H](C(C)C)C(=O)N2CCC[C@H]2C(=O)N1)C(C)C)C(=O)NCC(=O)N[C@H](C(=O)N1CCC[C@H]1C(=O)N[C@H](C(=O)N[C@@H](CO)C(=O)N[C@@H](Cc1ccccc1)C(=O)N[C@@H](Cc1ccc(O)cc1)C(=O)NCC(=O)O)[C@@H](C)CC)[C@@H](C)O [microcin J25] (GGAGHVPEYFVGIGTPISFYG-OH; lactam N-8; C-terminus assumed)
E. coli [2]
  MIC: 0.1 µM (≈ 0.211 µg/mL)
E. coli RNA polymerase [3]
  knockdown of GFP expression / native RNA polymerase: knocks down GFP expression
E. coli RNA polymerase [3]; listed as microcinJ25
  knockdown of GFP expression / native RNA polymerase: functional knockdown
E. coli [4]
  MIC: 0.02 µg/mL (≈ 9.49 nM)
Salmonella
  decrease in Salmonella infection: 3 fold

## caulosegnin
E. coli RNA polymerase [3]
  knockdown of GFP expression / native RNA polymerase: no effect on GFP expression
E. coli RNA polymerase [5]
  RNA polymerase inhibitory activity: not to have RNA polymerase inhibitory activity

## klebsidin
E. coli RNA polymerase [3]
  knockdown of GFP expression / native RNA polymerase: functional knockdown

## mcjA: peptide precursor (propeptide) of microcin J25 (MIKHFHFNKLSSGKKNNVPSPAKGVIQIKKSASQLTKGGAGHVPEYFVGIGTPISFYG; full-length; UniProt Q9X2V7 1-58, looked up)
[6]
  stability when expressed in E. coli cell-free systems: known to degrade
